Assay results as given in patent US20250073234A1, “COMBINATION THERAPIES INCLUDING PARP1 INHIBITORS” (Cornell University, priority 2022, published 2025).
Read-outs that look alike come from different tables or passages of the source.

Key:
[1] = tested on: bone marrow stromal cells; test: qPCR in mouse bone marrow stromal cells; assay type: cell-based
Protocol: Total RNA from mouse tissues, cells and cultured organoids was extracted using the TRIZOL reagent (Invitrogen) and the RNeasy Mini Kit (QIAGEN), followed by DNase treatment. After quantification using a Nanodrop 1000 spectrophotometer (Thermo Scientific), RNA was either processed for RNA-seq or reverse-transcribed using random primers and MultiScribe Reverse Transcriptase (Applied Biosystems). Gene expression was analyzed by amplifying 20 ng of the complementary DNA using the CFX96 Real Time PCR Detection System with SYBR Green Master Mix (BioRad) and primers described in Table S1. The amplification parameters were set at 95° C. for 30 seconds, 58° C. for 30 seconds, and 72° C. for 30 seconds (40 cycles total). Gene expression values for each sample were normalized to the 18s RNA.

RM1-BoMe3 metastases = test: Caudal artery injection RM1-BoMe3 metastasis model; assay type: in vivo, mouse; conditions: Olaparib 40 mg/kg i.p., 3 weeks
Protocol: Tissues from indicated mice were isolated, fixed in zinc buffered formalin overnight at 4° C., dehydrated, and embedded in paraffin. Sections (5 μm) were stained with hematoxylin and eosin (H&E). For immunohistochemistry, sections were deparaffinized, rehydrated, and then treated for antigen retrieval. After blocking in Protein Block Serum-Free solutions (DAKO), tissues were incubated with primary antibody overnight at 4° C. followed by incubation with biotinylated secondary antibody. Endogenous peroxidase was quenched in 3% H2O2 in water for 10 minutes at room temperature. Antibodies were visualized with avidin-biotin complex (Vectastain Elite; Vector Laboratories) using diaminobenzidine as the chromogen. Stained sections were analyzed with a Zeiss light microscope supplemented with Zen 3.3 Bule edition software.
For the metastasis model, caudal artery injection was performed with 500000 RM1-BoMe3-RFP-Luc prostate cancer epithelial cells in 150 μl of PBS n=10 in 8-week-old C57B16 male mice. After 1-week luciferase was visualized using IVIS to detect signal in the lower limbs and in less frequently in visceral organs, mice with signal were randomly distributed to receive vehicle, n=5, or Olaparib n=5 (40 mg/kg/, 5 days each, i.p.). After 3 weeks, mice were euthanized and ex-vivo IVIS was performed in lower limbs, vertebrae, and visceral organs to detect metastasis sites. Tissues were collected and analyzed histologically.

PC3^GFP cells = test: Survival of GFP-labeled PC3 cells alone or co-cultured with WPMY-1 cells; assay type: cell-based, human; conditions: Olaparib 5 μM, 10 days, basal and ADT
Protocol: Co-culture assays were performed as described previously (Valencia et al., 2014). Briefly, stromal cells were seeded in TC-treated 6-well plates and allowed to attach for 6 hours before PCa cells were seeded on top of Milicell Cell Culture Inserts (Millipore). Inserts were then placed in the pre-seeded 6-well plate. For co-culture experiments of PC3-GFP label with WPMY-1 cells, 500 PC3 and 1000 WPMY-1 were seeded in a 96 well plate in DMEN containing 10% FBS (basal conditions) or 10% charcoal stripped FBS (ADT conditions) and vehicle (DMSO) or Olaparib 5 μM for 10 days. Media and treatments were refresh every 48 hours. Pictures were taken using EVOS M5000 Imaging System and GFP positive were measured using Fiji (Schindelin et al., 2012).

PC3 cells = test: Click-iT EdU proliferation of PC3 cells treated with CM from WPMY-1 cells; assay type: cell-based, human; conditions: CM from Olaparib-treated WPMY-1, 24 h
Protocol: WPMY-1 cells were cultured in DMEN containing 10% FBS (basal conditions) or 10% charcoal stripped FBS (ADT conditions), then the cells were treated with vehicle (DMSO), Olaparib 10 μM, Olaparib 10 μM+PEGPH20 2.5 μg/ml for 96 hours, refreshing media and stimuli at 48 hours, conditioned media (CM) was generated by collecting supernatant on day 4. PC3 cells were seeded in a black-walled well (Thermo Fisher) and serum starved overnight. CM from WPMY-1 cells was added to PC3 for 24 h. PC3 were exposed to EdU incorporation for the last 2 hours. Proliferating cells were detected using Click-iT EdU Alexa fluor 488 (Thermo Fisher) following the manufacturer's instructions. Pictures were taken using EVOS M5000 Imaging System and EdU positive were measured using Fiji (Schindelin et al., 2012).

[2] = tested on: prostate cancer bone metastasis; test: Paired biopsies of bone metastasis from a mCRPC patient, IHC for HA; assay type: in vivo, human
WPMY-1 fibroblasts = test: GSEA of RNAseq data from WPMY-1 fibroblasts; assay type: cell-based, human; conditions: for GSEA inflammatory signaling pathways (TNFα, IL-6, JAK-STAT): Olaparib 20 μM vs DMSO
Protocol: Total RNA was extracted using Quick-RNA MiniPrep kit (Zymo Research). Libraries were prepared from 200 ng of total RNA using the QuantSeq 3′ mRNA-Seq Library Prep Kit FWD for Illumina from Lexogen, and optional UMIs (Vienna, Austria). Barcoded libraries were pooled, and single end sequenced (1×75) on the Illumina NextSeq 500 using the High output V2.5 kit (Illumina Inc., San Diego CA).
Peaks were annotated with ChipSeeker R package. […].

In the case of `O=C(c1cc(Cc2n[nH]c(=O)c3ccccc23)ccc1F)N1CCN(C(=O)C2CC2)CC1` [Olaparib], the “markers of stromal activation (Acta2, Has2)” value ([1]; cells isolated from in vivo treated mice, 40 mg/kg) is reported as “enhanced expression of markers of stromal activation”, the “markers of TGFβ family (Tgfb3, Tgfb2) and Has3” value ([1]; in vitro, Olaparib 10 μM, 96 h) is reported as “increased expression of markers of TGFβ family” and the “HA deposition in liver metastasis (IHC)” value (RM1-BoMe3 metastases) is reported as “increased HA deposition in Olaparib-treated liver metastasis”. For the same molecule, the “TGFβ signaling in bone metastasis (nuclear pSMAD2)” value (RM1-BoMe3 metastases) was “increased pSMAD2 staining in bone metastasis”, the “HA deposition in liver metastasis (IHC)” value (RM1-BoMe3 metastases; listed as Ola) was “deposition of HA was observed” and the “TGFβ signaling in bone metastasis (nuclear pSMAD2)” value (RM1-BoMe3 metastases; listed as Ola) was “increased activation of TGFβ signaling”. The “sensitivity of PC3^GFP cells to Olaparib, co-culture vs monoculture” value (PC3^GFP cells) was “more resistant to Olaparib”, the “PC3 proliferation (EdU positive cells)” value (PC3 cells) was “increased PC3 proliferation” and the “HA deposition in bone metastasis, pre- vs post-treatment” value [2] was “increased HA deposition”. The “HA deposition in bone metastasis, pre- vs post-treatment” value ([2]; listed as Ola) was “robust increase in HA deposition”, the “GSEA inflammatory signaling pathways (TNFα, IL-6, JAK-STAT)” value (WPMY-1 fibroblasts) was “increased inflammatory related signatures” and the “GSEA inflammatory signaling pathways (TNFα, IL-6, JAK-STAT)” value (WPMY-1 fibroblasts; listed as Ola) was “significant enrichment was found in inflammatory signaling pathways”. The “GSEA signatures of extracellular matrix remodeling / CAF activation” value (WPMY-1 fibroblasts; basal or ADT conditions) was “enrichment of signatures corresponding to extracellular matrix remodeling”.
